We go through seven compounds from patent publication US9415049B2, “Heteroaryl compounds and uses thereof” (Celgene Avilomics Research, Inc., priority 2013, dated 2016).

Chain of human recombinant full-length Btk enzyme (Q06187 whole entry): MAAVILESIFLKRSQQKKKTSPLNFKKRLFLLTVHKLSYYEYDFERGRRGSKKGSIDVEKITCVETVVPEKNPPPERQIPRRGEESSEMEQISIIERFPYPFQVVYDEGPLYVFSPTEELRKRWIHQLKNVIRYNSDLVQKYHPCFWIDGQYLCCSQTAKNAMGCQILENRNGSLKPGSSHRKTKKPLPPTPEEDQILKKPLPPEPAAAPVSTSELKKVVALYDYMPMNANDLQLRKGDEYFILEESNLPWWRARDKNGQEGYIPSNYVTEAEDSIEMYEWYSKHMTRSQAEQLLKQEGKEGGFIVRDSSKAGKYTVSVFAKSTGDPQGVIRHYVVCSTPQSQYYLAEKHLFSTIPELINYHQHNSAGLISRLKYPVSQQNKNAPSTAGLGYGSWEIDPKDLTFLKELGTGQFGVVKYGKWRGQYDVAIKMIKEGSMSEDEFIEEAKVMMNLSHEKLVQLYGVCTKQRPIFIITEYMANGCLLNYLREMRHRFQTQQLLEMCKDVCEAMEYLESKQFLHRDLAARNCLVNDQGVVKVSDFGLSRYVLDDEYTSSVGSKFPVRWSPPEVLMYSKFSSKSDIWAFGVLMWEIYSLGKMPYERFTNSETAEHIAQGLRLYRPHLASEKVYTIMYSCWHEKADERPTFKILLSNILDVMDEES

The test concerns the target human recombinant full-length Btk enzyme (Homo sapiens, UniProt Q06187). Put plainly: Omnia Continuous Read Kinase Assay, Btk inhibition. The conditions noted are these: 30 minutes pre-incubation at 27° C.; 0.5 nM to 10 μM. The format is biochemical. Details: human recombinant full-length Btk enzyme. From the text:
The following Example describes testing certain compounds according to the invention for inhibition of BTK activity. The Omnia® Continuous Read Kinase Assay uses an unnatural amino acid chelation enhanced fluorophore (Sox; 8-hydroxy-5-(N,N-dimethylsulfonamido)-2 methylquinoline) incorporated into a kinase-specific peptide substrate to characterize Btk enzyme kinetics and inhibition. Following Btk-mediated phosphorylation, a sensitive, highly quantifiable increase in real-time fluorescence is noted based upon the ability of chelated Mg2+ to form a bridge between Sox and the phosphate group on a tyrosine residue of the peptide substrate. The Omnia® continuous read assay was performed essentially as described by the vendor (Invitrogen; Carlsbad, Calif.). First, a 10× stock of human recombinant full-length Btk enzyme was prepared in Kinase Reaction Buffer. 5 μL of the 10× enzyme was pre-incubated with 0.5 μL of serially diluted compound prepared in 50% DMSO, in a 384-well microtiter plate for 30 minutes at 27° C. 1.13×ATP and the Tyr5-Sox conjugated peptide substrate were prepared in 1× Kinase Reaction Buffer. Kinase reactions were initiated by the addition of 45 μL of the 1.13×ATP-Sox peptide substrate master mix and monitored every 30 to 90 seconds for 60 minutes at λex360/λem485 in a Synergy plate reader. The IC50 values for each compound assayed were determined from test concentrations of 0.5 nM to 10 μM in half-log intervals performed in duplicate.
At the conclusion of each assay, progress curves from each well were examined for linear reaction kinetics and fit statistics (R2, 95% confidence interval, absolute sum of squares) using GraphPad software (GraphPad Prism version 5.01; San Diego, Calif.). Initial velocity (0 minutes to ˜30+ minutes) from each reaction was determined from the slope of a plot of relative fluorescence units versus time (minutes). Using control normalized % inhibition data, plots were constructed against inhibitor concentration to estimate IC50 from log [inhibitor] versus response using a variable slope model in GraphPad. The compound numbers correspond to the compound numbers in Table 1.
The term IC50 denotes the concentration at which inhibition is half-maximal. For the compound `COCCOc1ccc(Nc2ncc(F)c(Nc3cccc(N4OCCC4=O)c3)n2)cc1` [Compound I-27], the half-inhibitory concentration (IC50) was in the range of 101 to 500 nM.

`C=CC(=O)Nc1cc(Nc2nc(Nc3ccc(OCCOC)cc3)ncc2F)ccc1O` [Compound I-17, N-(5-((5-fluoro-2-((4-(2-methoxyethoxy)phenyl)amino)pyrimidin-4-yl)amino)-2-hydroxyphenyl)acrylamide]: the IC50 was not above 10 nM.

Consider `C=CC(=O)Nc1ccc(O)c(Nc2nc(Nc3ccc(OCCOC)cc3)ncc2F)c1` [Compound I-15, N-(3-((5-fluoro-2-((4-(2-methoxyethoxy)phenyl)amino)pyrimidin-4-yl)amino)-4-hydroxyphenyl)acrylamide], for which the IC50 is 11 to 100 nM.

Consider `C=CC(=O)Nc1cccc(Nc2nc(Nc3ccc(OCCOC)cc3O)ncc2F)c1` [Compound I-14, N-(3-((5-fluoro-2-((2-hydroxy-4-(2-methoxyethoxy)phenyl)amino)pyrimidin-4-yl)amino)phenyl)acrylamide], for which the IC50 is not above 10 nM.

Turning to `COCCOc1ccc(Nc2ncc(F)c(Nc3cccc(NC(=O)CCO)c3)n2)cc1` [Compound I-26, N-(3-((5-fluoro-2-((4-(2-methoxyethoxy)phenyl)amino)pyrimidin-4-yl)amino)phenyl)-3-hydroxypropanamide], the IC50 was more than 501 nM.

On to `C=CC(=O)Nc1cc(O)cc(Nc2nc(Nc3ccc(OCCOC)cc3)ncc2F)c1` [Compound I-16, N-(3-((5-fluoro-2-((4-(2-methoxyethoxy)phenyl)amino)pyrimidin-4-yl)amino)-5-hydroxyphenyl)acrylamide], for which the IC50 was not above 10 nM.

For `C=CC(=O)Nc1cccc(Nc2nc(N(C)c3ccc(OCCO)cc3)ncc2F)c1` [Compound I-25, N-(3-((5-fluoro-2-((4-(2-hydroxyethoxy)phenyl)(methyl)amino)pyrimidin-4-yl)amino)phenyl)acrylamide], the IC50 is 101 to 500 nM.
